These results are taken from a melting point compilation (Tetko et al.).

Compound `CC(=O)c1ccc2c(c1)CCC(=O)N2` had a melting point of 162 to 164 °C. In turn, `NNC(=O)c1n[nH]c(=O)c2ccccc12` showed a melting point of 239 to 241 °C.

The compound `COC(=O)c1c(C)cccc1S(=O)(=O)Cl` displayed a melting point of 53 to 55 °C. The result for `O=c1[nH]nc(N2CCNCC2)c(=O)[nH]1` reads 150 to 152 °C; that for `Nc1nc(CCCC(=O)O)cs1`, 89 to 91 °C. The compound `CN(C)C(=O)Sc1cnn(-c2ccccc2F)c1` had a melting point of 65 to 67 °C. The result for `Nc1ccc2oc(CO)nc2c1` reads 113 to 115 °C; that for `O=C(O)c1ccsc1C(=O)O`, 268 to 270 °C; that for `Cc1nc(CC(N)=NO)no1`, 142 to 144 °C. The result for `O=C(O)c1ccc(=O)n(-c2ccccc2F)c1` reads 249 to 251 °C; that for `COC(=O)C(=O)NN`, 115 to 117 °C; that for `CS(=O)(=O)N1CCCC1C#N` (centres undefined), 62 to 64 °C. The result for `O=c1c(Cl)c(Cl)c1=O` reads 49 to 51 °C; that for `NNc1ncnc2sccc12`, 211 to 213 °C. Consider `Cc1nn(-c2ccc(F)cc2)c(Cl)c1C=O`, for which the melting point was 124 to 126 °C. The result for `Cc1ccc(Cn2nc(C)c(C(=O)O)c2C)cc1` reads 134 to 136 °C; that for `Cc1ccc(C(=O)NCCC(=O)O)c(O)c1`, 159 to 161 °C. The result for `O=C(O)C1CC(O)CN1C(=O)Cc1ccccc1F` (centres undefined) reads 201 to 203 °C; that for `CC(C)c1nnnn1CC(=O)O`, 179 to 181 °C. Regarding `NC(CC(=O)O)c1cccc(Cl)c1` (centres undefined), the melting point lay in the range of 227 to 229 °C. The result for `O=C(CN1CCNCC1)N1CCc2ccccc21` reads 139 to 141 °C; that for `O=[N+]([O-])c1ccc(O)c(Cc2ccccc2)c1`, 117 to 121 °C. The result for `Nc1ccc(NC(=O)C2CCCO2)cc1C(F)(F)F` (centres undefined) reads 64 to 66 °C. In turn, `Cc1cc(NC(=O)CCl)on1` returned a melting point of 106 to 108 °C.

`O=C(O)CCc1n[nH]c(S)nc1=O` showed a melting point of 162 to 164 °C.

Regarding `CC(C)(C)OC(=O)NC1CC1(F)F` (centres undefined), the melting point lay within 73 to 75 °C. `Cc1cc(=O)oc2cc(OCC(=O)O)ccc12`: the melting point is 206 to 208 °C. Turning to `Cc1nnnn1-c1cc(N)ccc1F`, the melting point lay in the range of 109 to 111 °C.

As to `Nc1ccc(S(N)(=O)=O)cc1N`, the melting point lay in the range of 145 to 154 °C. The result for `N#Cc1cc2c([nH]c1=O)CCCCC2` reads 253 to 255 °C; that for `CC(Cl)C(=O)NCc1ccccc1F` (centres undefined), 66 to 68 °C. The result for `CN(C)c1ccc(NC(=S)NN)cc1` reads 167 to 169 °C; that for `Nc1nc(-c2ccccc2)no1`, 149 to 151 °C. The result for `CC(O)c1cc(Cl)ccc1Cl` (centres undefined) reads 60 to 64 °C; that for `Nc1cc2c(cc1Sc1ccccc1)OCCO2`, 74 to 76 °C.

Take `Cc1cc(Br)cc(C)c1N1CCCC1=O`: the melting point fell in the range of 103 to 105 °C. As to `CC1CCCC(O)(CN)C1` (centres undefined), the melting point lay in the range of 59 to 61 °C. The result for `Cc1ccc(OCCCC(=O)O)c(C)c1` reads 126 to 128 °C. The compound `Cc1ccc(Cn2c(N)cc(=O)[nH]c2=O)cc1` showed a melting point of 279 to 281 °C.

Consider `Cc1cc(C)c2c(n1)NCC(=O)N2`, for which the melting point was in the range of 209 to 211 °C. The result for `O=C(O)c1ccc(-c2ccco2)[nH]c1=O` reads 299 to 301 °C; that for `FC(F)(F)c1cccc2c(Cl)ncnc12`, 144 to 146 °C. The result for `O=C(CCl)NCC#Cc1cccc(C(F)(F)F)c1` reads 80 to 82 °C; that for `O=C1CCN(S(=O)(=O)c2cccs2)CC1`, 127 to 129 °C; that for `Cc1ncc(-c2ccccc2)cc1N`, 139 to 141 °C.

In the case of `CCNC(=O)NC(=O)C(C)Cl` (centres undefined), the melting point was 126 to 128 °C.

The compound `NC(=O)c1ccc(OCCC(=O)O)cc1` gave a melting point of 214 to 216 °C. The result for `CCOC(=O)C(=O)CC(=O)c1ccc(Cl)cc1Cl` reads 68 to 70 °C.

`CCOP(=O)(Cc1cc(Cl)ccc1Cl)OCC`: the melting point was in the range of 53 to 55 °C. Turning to `O=C1CCCN1c1ccc(Cl)c([N+](=O)[O-])c1`, the melting point lay in the range of 137 to 139 °C.

Take `O=C(c1ccc(Cl)cc1)c1cccnc1`: the melting point fell in the range of 87 to 89 °C. The result for `O=S(=O)(Cl)c1ccc(-n2cccn2)c(F)c1` reads 104 to 106 °C; that for `O=S(=O)(c1cccc(Br)c1)N1CCNCC1`, 97 to 101 °C; that for `NC(=O)Nc1ccc2c(c1)OCO2`, 178 to 182 °C. The result for `Nc1cccc(CS(=O)C2CCOCC2)c1` (centres undefined) reads 125 to 127 °C; that for `NCC(O)COc1ccc2c(c1)OCO2` (centres undefined), 107 to 109 °C.

The compound `Cc1ccc(S(=O)(=O)OCC2CCCO2)cc1` (centres undefined) showed a melting point of 43 to 45 °C. The result for `O=C(O)c1ccc(=O)n(-c2ccccc2F)n1` reads 199 to 201 °C; that for `Cc1nc2c(cnn2C)c(=O)[nH]1`, 274 to 276 °C.

With `O=C(O)C1CCc2[nH]ncc2C1` (centres undefined), the melting point was in the range of 229 to 231 °C. The result for `Nc1ccc(C(=O)NCc2ccccn2)c(Cl)c1` reads 159 to 161 °C.

Regarding `NC(=O)N1CCC(=O)CC1`, the melting point was 137 to 139 °C.

As to `CC(=O)c1ccc(C(F)(F)F)[nH]c1=O`, the melting point lay within 87 to 89 °C.

The compound `O=Cc1ccccc1-n1cncn1` returned a melting point of 113 to 115 °C.

Take `O=C(c1c[nH]c(=O)[nH]1)N1CCNCC1`: the melting point was in the range of 269 to 271 °C. The result for `Nc1nc(-c2ccc(F)cc2)cs1` reads 111 to 113 °C; that for `Nc1c(Cl)nc2ccccc2c1N`, 178 to 180 °C; that for `CC(C)n1nnnc1-c1ccc(N)cc1F`, 118 to 120 °C. The result for `Oc1ccc(-c2ccccc2)nc1` reads 174 to 176 °C; that for `CNC(=O)CNc1cccc(OC)c1`, 78 to 80 °C.

In turn, `O=c1c2cc(Cl)cc(Cl)c2nc2n1CCC2` gave a melting point of 245 to 247 °C. The result for `Cc1c(C(=O)NN)oc2ccccc12` reads 139 to 141 °C. The result for `CC(C)Oc1cc(C(=O)O)ccn1` reads 145 to 147 °C; that for `BrCC1CSc2nnc(-c3ccccc3)n21` (centres undefined), 157 to 159 °C. The result for `COC(=O)C(Br)CN1C(=O)c2ccccc2C1=O` (centres undefined) reads 99 to 101 °C; that for `Cc1ccc(O)c(C(=O)Nc2nc(CC(=O)O)cs2)c1`, 271 to 273 °C. Compound `CC(C)S(N)(=O)=O` registered a melting point of 44 to 46 °C.

`CNC(=O)NCC(=O)O`: the melting point lay within 138 to 140 °C. The result for `Nc1nnc(Cc2cccc(Cl)c2)s1` reads 196 to 198 °C; that for `O=C(O)CNS(=O)(=O)c1ccc(N2CCCC2=O)cc1`, 130 to 132 °C.

For `O=C(O)c1cc(-c2ccncc2)on1`, the melting point was 276 to 278 °C. The result for `Cc1ccc(N)c(OCCN(C)C)c1` reads 51 to 53 °C; that for `CC(=O)NCCc1ccc(C(=O)CCl)s1`, 124 to 126 °C; that for `COC(=O)COc1c(C)cc(C(=O)O)cc1C`, 173 to 175 °C. The result for `Cc1ccc(-c2nn(-c3ccc(F)cc3)cc2C(=O)O)cc1` reads 212 to 214 °C; that for `N#Cc1ccc(Oc2cccc(Cl)c2Cl)nc1`, 143 to 145 °C; that for `COc1cc(C)c(S(=O)(=O)Cl)cc1C`, 98 to 100 °C.

Compound `CC(=O)c1cnc2nncn2c1C` came in with a melting point of 192 to 193 °C. The result for `O=C(O)Cc1csc(NC(=O)NC2CC2)n1` reads 188 to 190 °C. Consider `Cc1nc(-c2cccnc2)nc(Cl)c1C`, for which the melting point was 72 to 74 °C. The result for `O=C(O)CCNc1ccccc1` reads 56 to 60 °C; that for `NC(=O)C1CC(C(=O)O)=NN1c1ccc(F)cc1` (centres undefined), 219 to 221 °C; that for `CC1(C)CC(=O)c2cncnc2C1`, 67 to 69 °C.

`CC1CCc2c(C(=O)O)csc2C1` (centres undefined) yielded a melting point of 178 to 180 °C. The result for `COc1ccc(-c2nc(N)cc(=O)[nH]2)cc1` reads 271 to 273 °C; that for `CC(C)C(NC(=O)c1ccco1)C(=O)O` (centres undefined), 103 to 105 °C; that for `O=C(O)CN1C(=O)CCC1=O`, 91 to 93 °C.

Turning to `Nc1ccccc1C(=O)NCc1ccccc1`, the melting point is 125 to 127 °C.

As for `Clc1nc(-c2cccnc2)nc2sc(-c3ccccc3)cc12`, the melting point fell in the range of 179 to 182 °C. The result for `CC(C)(C)c1nn(Cc2ccccc2)cc1C=O` reads 64 to 66 °C. The result for `O=C(O)c1cccc(C(O)C(=O)O)c1` (centres undefined) reads 189 to 191 °C; that for `Clc1noc(-c2cccs2)n1`, 37 to 39 °C. The result for `O=Cc1ccc(-c2ccc(F)cc2)s1` reads 111 to 113 °C; that for `N#Cc1cccc(CN2C(=O)CSC2=O)c1`, 112 to 114 °C; that for `COC(=O)C1(N)CCS(=O)(=O)CC1`, 124 to 126 °C. As to `Cc1ccc(CN(C)c2ccc(C(=O)O)cc2)cc1`, the melting point is 177 to 179 °C. `Nc1cnc(Br)c(Br)c1`: the melting point fell in the range of 106 to 108 °C.

Compound `O=C1NC(=O)C2(CN3CCC2CC3)N1` (centres undefined) showed a melting point of 298 to 300 °C. In turn, `O=C(O)c1ccc(Cl)c(NC(=O)c2cccs2)c1` had a melting point of 166 to 168 °C.

In the case of `Cc1cnoc1C(=O)O`, the melting point was 133 to 135 °C. The result for `O=C(O)c1ccnc(C2CC2)c1` reads 257 to 259 °C; that for `CCCCNC(=O)CC(N)=NO`, 95 to 99 °C; that for `O=C(O)c1c[nH]c(Br)c1`, 119 to 121 °C. The result for `Cc1cccc(OCCNc2ccc(F)cc2N)c1` reads 76 to 78 °C. The result for `Cc1ccc(NC(=O)CCl)cc1Cl` reads 73 to 75 °C; that for `COc1ccc(Cl)c(NC(=O)NN)c1`, 159 to 161 °C; that for `CS(=O)(=O)N(c1ccc(N)cc1Br)S(C)(=O)=O`, 179 to 181 °C. Turning to `COc1ccc(-n2c(C)cc(C(=O)O)c2C)cc1`, the melting point was in the range of 232 to 234 °C. The result for `Cc1cccc(NC(=O)C(Br)C(C)C)c1C` (centres undefined) reads 150 to 152 °C; that for `CC(C)(C)OC(=O)N1C2CCC1C(C(=O)O)C2` (centres undefined), 144 to 146 °C.

`CCC1Oc2c(Cl)cccc2NC1=O` (centres undefined): the melting point fell in the range of 139 to 141 °C. The result for `COc1cccc(C(=O)NCC(=O)O)c1` reads 78 to 80 °C; that for `O=S(=O)(Cl)C=Cc1ccc(Cl)cc1`, 131 to 133 °C; that for `O=C(O)c1ccc(=O)n(-c2cccc(Br)c2)c1`, 279 to 281 °C.
